Source: publication PMC6669322, “Small Molecule Binding to Alzheimer Risk Factor CD33 Promotes Aβ Phagocytosis” (iScience, 2019)

Target: T1, CD33 Y127A (Homo sapiens, UniProt P20138, Y127A)
T1 construct: human CD33 ORF (NM_001772.3), lacking its signal peptide; expressed in transfected cells; host or cells: HEK293T, transient, pT8-SNAP vector
Test: SNAP-tag homogeneous time-resolved fluorescence binding assay, CD33 Y127A
Conditions: Y127A variant, in words
Experimental: Figure 3 P22 Binding to CD33 Wild-Type and Mutants (A) An example of affinity analysis for 1–243 μM (3-fold dilutions) of P22 binding to immobilized CD33^C36S. Data obtained in duplicate using single-cycle analysis and fit to a steady-state binding model to determine the equilibrium binding constant. (B) An example of affinity analysis of P22 binding to immobilized CD33 wild-type (WT) as per example in (A). (C) Sensorgram data for 0.01–9 μM (3-fold dilutions) of CD33^C36S binding to immobilized P22. Data obtained in triplicate using single concentration cycles and fit to a 1:1 binding model for kinetic analysis. […]
We then used our structural data to design mutations of key residues interacting with P22 to assess which interactions were the most important for binding affinity. The residues were mutated into alanine, and the effect of these mutations on P22 binding affinity was assessed using a SNAP-tag homogeneous time-resolved fluorescence binding assay (see Transparent Methods and Figures 3E–3G). […]
HEK293T cells were cultured in DMEM (ThermoFisher Scientific # 11965092) containing 10% FBS (Hyclone # SH30070.03) and 1% Penicillin-Streptomycin (ThermoFisher Scientific # 15140122) and transfected using Fugene HD (Promega # E2312) in 10 cm plates. […] The cells were counted, centrifuged and resuspended in PBS at a concentration of 1,000 cells/μL and 10 μL were plated into each well. […]

T1 sequence (P20138 18-364 Y127A): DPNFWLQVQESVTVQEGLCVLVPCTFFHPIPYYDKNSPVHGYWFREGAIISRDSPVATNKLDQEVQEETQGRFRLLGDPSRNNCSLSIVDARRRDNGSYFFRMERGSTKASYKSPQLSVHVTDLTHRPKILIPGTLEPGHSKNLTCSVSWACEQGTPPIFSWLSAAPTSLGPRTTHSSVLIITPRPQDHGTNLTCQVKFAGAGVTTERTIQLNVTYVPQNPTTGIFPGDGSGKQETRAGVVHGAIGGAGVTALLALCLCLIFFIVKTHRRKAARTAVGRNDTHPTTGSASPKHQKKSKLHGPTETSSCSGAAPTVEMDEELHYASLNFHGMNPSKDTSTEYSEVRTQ

SMILES: Cc1cc(C(=O)NC[C@@H](O)[C@@H](O)[C@@H]2O[C@@](OC[C@H]3O[C@@H](O[C@H]4[C@H](O)[C@@H](O)[C@H](OCCN)O[C@@H]4CO)[C@H](O)[C@@H](O)[C@H]3O)(C(=O)O)C[C@H](O)[C@H]2NC(=O)Cn2cc(C3CCCCC3)nn2)cc(C)c1O [P22, β-D-Glucopyranoside, 2-aminoethyl O-[N-[2-(4-cyclohexyl-1H-1,2,3-triazol-1-yl)acetyl]-9-deoxy-9-[(4-hydroxy-3,5-dimethylbenzoyl)amino]-α-neuraminosyl] (2→6)-O-β-D-galactopyranosyl-(1→4)-]
- specific binding (total binding – binding in presence of 100 μM non-labeled P22): completely abolished
